Earlier results as cited in patent publication US12409106B2, “Medical material” (Senju USA, Inc., priority 2022, dated 2025).

Conditions: Soong T. Chiang et al., Pharmacotherapy 1996

topical 50% effective concentration EC50 on pain after oral surgery: 0.36 µg/mL
Structure (SMILES): Nc1c(CC(=O)O)cccc1C(=O)c1ccc(Br)cc1 [bromfenac]
